In article PMC12198282, “Application of a high-density microelectrode array assay using a 3D human iPSC-derived brain microphysiological system model for in vitro neurotoxicity screening of environmental compounds” (Archives of Toxicology, 2025):
“Also recorded” adds a separate entry of the source. Read-outs that look alike come from different tables or passages of the source.

System: human iPSC-derived 3D BrainSpheres
Test: BrainSphere MEA assay (HD-MEA, 13-day exposure, concentration-response); for hitc Mean.Spheroid.Burst.Duration: key: 1 (active); 0 (inactive); for hitc Mean.Spheroid.Burst.ISI: key: 1 (active); 0 (inactive); for hitc Mean.Spheroid.Burst.Peak.Firing.Rate: key: 1 (active); 0 (inactive); for hitc Mean.Spheroid.Firing.Rate: key: 1 (active); 0 (inactive); for hitc Mean.Spheroid.IBI: key: 1 (active); 0 (inactive); for hitc Mean.Spheroid.Nonburst.ISI: key: 1 (active); 0 (inactive); for hitc Mean.Spheroid.Spikes.per.Burst.per.Electrode: key: 1 (active); 0 (inactive); for hitc Mean.Spheroid.Spikes.per.Burst: key: 1 (active); 0 (inactive); for hitc Spheroid.Burst.Frequency: key: 1 (active); 0 (inactive); for hitc Spheroid.Spike.Amplitude.90th.Percentile: key: 1 (active); 0 (inactive)
Type: cell-based
Details: for EC (benchmark response 1.349 SD): 312 h
Experimental: A volume of 1 ml of Tergazyme (1% solution in deionized water) was added to each well of the MaxTwo 6-Well Plate (MaxWell Biosystems) and incubated overnight under constant gyratory shaking (88 RPM) at 37 °C and 5% CO2. The next day, Tergazyme solution was removed, and plates were washed with distilled water and ethanol. After remaining ethanol was evaporated, wells were washed with PBS. Then, 200 µl of Poly-D-Lysine (Gibco, A38904 - 01) was added on top of the electrodes and incubated at 37 °C and 5% CO2 for 3 h (humidified). Poly-D-Lysine was then removed, and wells were coated with 100 µl of 0.1 mg/ml laminin coating solution (Sigma-Aldrich, L2020 - 1 mg) and incubated for 2 h at 37 ℃ and 5% CO2 (humidified). The laminin was removed after incubation. Using a 1 ml micropipette, 1 ml of medium containing BrainSpheres (7 weeks differentiated), approximately 25 BrainSpheres per ml, was plated on top of the HD-MEA chip (Fig. 1A). Afterwards, the plate was placed in an incubator at 37 °C and 5% CO2 and moved in circles to accumulate the BrainSpheres on top of the electrode area (Fig. 1A). The plate was kept in an incubator (humidified) for 2 days to allow attachment of the BrainSpheres with no gyratory shaking of the plates.
The MaxTwo high-density microelectrode array system (MaxWell Biosystems AG, Zurich, Switzerland) was used to measure neural activity with MaxTwo 6-well plates, where every well includes an integrated chip with 26,400 platinum electrodes arranged in an area of 3.85 × 2.10 mm^2 ([…]) (Muller et al. [2015]). The data were recorded and analyzed with the MaxLab Live Software (version 22.2.22). First, the MaxLab live ActivityScan Assay was used to identify the activity and positioning of the BrainSpheres on the array by scanning all the 26,400 electrodes in 29 configurations in a well (Assay Parameters: Configuration = Full; Recording time per configuration = 60 s (s)). The settings gain = 512, high-pass-filter (HPF): ~ 1 Hz and spike threshold = 5 X root-mean square (RMS) noise were used for all HD-MEA recordings. Circular regions of interest (ROI) were manually selected in the Activity Map where neuronal activity was apparent by an increased activity (Fig. 2). Over the course of the 13-day experiment, the same selected regions and electrodes were measured using the MaxLab Live Network Assay (600 s recording time).
A custom analysis framework was used to extract the MaxLab Live neuronal metrics for the individual BrainSpheres. For this, electrodes comprising a single ROI (i.e., individual BrainSphere; Fig. 2D) were grouped using distance-based clustering (fcluster method of Scipy library, Python 3.7) and neural metrics were calculated for the clustered electrodes for every ROI separately. Figure 2E presents a raster plot illustrating the activity associated with individual Regions of Interest (ROIs). […] Ten MaxLab Live neural metrics (endpoints) were evaluated from the MaxLab live ActivityScan and Network Assay in this study. See Table 3 for the endpoint definitions, tuned parameters, and activity type (general versus network connectivity).
The BrainSphere MEA assay measured changes in neural activity during a 13-day chemical exposure. The first recording day of the concentration–response screening protocol (day of exposure (DOE) 0) occurred after 7 weeks of BrainSphere differentiation, 48 h after plating on HD-MEA plates (Fig. 1B). The study included at least three biological replicates (one well per plate) from separate experiments (e.g., three different plates on three different days) and each well included multiple BrainSpheres which were considered technical replicates.

[1] = Homo sapiens, read-out: BMD Mean.Spheroid.Burst.ISI
[2] = Homo sapiens, read-out: BMD Mean.Spheroid.Nonburst.ISI
[3] = Homo sapiens, read-out: ac50 Mean.Spheroid.Burst.Duration
[4] = Homo sapiens, read-out: ac50 Mean.Spheroid.Burst.ISI
[5] = Homo sapiens, read-out: ac50 Mean.Spheroid.Burst.Peak.Firing.Rate
[6] = Homo sapiens, read-out: ac50 Mean.Spheroid.IBI
[7] = Homo sapiens, read-out: ac50 Mean.Spheroid.Spikes.per.Burst
[8] = Homo sapiens, read-out: ac50 Mean.Spheroid.Spikes.per.Burst.per.Electrode
[9] = Homo sapiens, read-out: ac50 Spheroid.Spike.Amplitude.90th.Percentile
[10] = AUC over 13-day exposure, tcplfit2
[11] = tcplfit2 BMD at benchmark response (1.349*SD of baseline controls)
[12] = tcplfit2 output ACC, activity cutoff in Supplemental Table 1
[13] = top of winning model, response normalized as percent of vehicle control, negative = decrease

With `CC(=O)Nc1ccc(O)cc1` [Acetaminophen] the “Bioactivity across the 10 MEA endpoints of the BrainSphere MEA assay (in words)” value was “inactive in both assays; also recorded: inactive across all endpoints; also recorded: inactivity across all metrics in both models”, the “Bioactivity trend over time for MFR, mean spike amplitude and burst frequency (qualitative)” value was “no clear chemical-dependent effects were observed” and the Hits was 0. The Percent active was 0%, the “hitc Mean.Spheroid.Burst.Duration” value was 0 and the “hitc Mean.Spheroid.Burst.ISI” value was 0. The “hitc Mean.Spheroid.Burst.Peak.Firing.Rate” value was 0, the “hitc Mean.Spheroid.Firing.Rate” value was 0 and the “hitc Mean.Spheroid.IBI” value was 0. For the same molecule, the “hitc Mean.Spheroid.Nonburst.ISI” value was 0, the “hitc Mean.Spheroid.Spikes.per.Burst” value was 0 and the “hitc Mean.Spheroid.Spikes.per.Burst.per.Electrode” value was 0. For the same molecule, the “hitc Spheroid.Burst.Frequency” value was 0, the “hitc Spheroid.Spike.Amplitude.90th.Percentile” value was 0 and the EC (benchmark response 1.349 SD) [1] was 415 µM. The EC (benchmark response 1.349 SD) [2] was 163 µM, the AC50 [3] was 4.7 µM and the AC50 [4] was 45 µM. The AC50 [5] was 0.37 µM, the AC50 [6] was 1.8 µM and the AC50 [7] was 6 µM. For the same molecule, the AC50 [8] was 0.39 µM, the AC50 (Homo sapiens, read-out: ac50 Spheroid.Burst.Frequency) was 0.61 µM and the AC50 [9] was 0.24 µM.

With `CC1(C)S[C@@H]2[C@H](NC(=O)[C@H](N)c3ccc(O)cc3)C(=O)N2[C@H]1C(=O)O` [Amoxicillin] the “BMD Spheroid.Burst.Frequency” value was 448 µM, the “Bioactivity across the 10 MEA endpoints of the BrainSphere MEA assay (in words)” value was “inactive across all metrics; also recorded: inactivity across all metrics in both models” and the Hits was 0. The Percent active was 0%, the “hitc Mean.Spheroid.Burst.Duration” value was 0 and the “hitc Mean.Spheroid.Burst.ISI” value was 0. The “hitc Mean.Spheroid.Burst.Peak.Firing.Rate” value was 0, the “hitc Mean.Spheroid.Firing.Rate” value was 0 and the “hitc Mean.Spheroid.IBI” value was 0. For the same molecule, the “hitc Mean.Spheroid.Nonburst.ISI” value was 0, the “hitc Mean.Spheroid.Spikes.per.Burst” value was 0 and the “hitc Mean.Spheroid.Spikes.per.Burst.per.Electrode” value was 0. For the same molecule, the “hitc Spheroid.Burst.Frequency” value was 0, the “hitc Spheroid.Spike.Amplitude.90th.Percentile” value was 0 and the EC (benchmark response 1.349 SD) [1] was 1440 µM. It also gave an EC (benchmark response 1.349 SD) [2] of 620 µM, an AC50 [3] of 0.22 µM and an AC50 [4] of 45 µM. The AC50 [5] was 0.029 µM, the AC50 [6] was 0.063 µM and the AC50 [7] was 0.01 µM. It also gave an AC50 [8] of 0.036 µM and an AC50 [9] of 0.13 µM.

In the case of `Brc1ccc(Oc2ccc(Br)cc2Br)c(Br)c1` [BDE- 47], the EC50 (5th percentile across active AC50 values per chemical, read-out: Minimum potency) is reported as 8.22 µM, the “Difference of minimum potency between BrainSphere MEA assay and rNFA” value (5th percentile of AC50 values by chemical, above 0.5 = more potent in the rNFA) is reported as “more than 0.5 log10 µM” and the “hitc Mean.Spheroid.Burst.Duration” value [10] is reported as 1. The “hitc Mean.Spheroid.Burst.ISI” value [10] was 1, the “hitc Mean.Spheroid.Burst.Peak.Firing.Rate” value [10] was 1 and the “hitc Mean.Spheroid.Firing.Rate” value [10] was 1. The “hitc Mean.Spheroid.IBI” value [10] was 0, the “hitc Mean.Spheroid.Nonburst.ISI” value [10] was 0 and the “hitc Mean.Spheroid.Spikes.per.Burst” value [10] was 1. The “hitc Mean.Spheroid.Spikes.per.Burst.per.Electrode” value [10] was 1, the “hitc Spheroid.Burst.Frequency” value [10] was 1 and the “hitc Spheroid.Spike.Amplitude.90th.Percentile” value [10] was 1. The AC50 (concentration at 50% maximal activity, Supplement 3 prints it also for curves with hit call 0, listed as BDE-47, read-out: ac50 Mean.Spheroid.Burst.Duration) was 14.4 µM, the AC50 (concentration at 50% maximal activity, Supplement 3 prints it also for curves with hit call 0, listed as BDE-47, read-out: ac50 Mean.Spheroid.Burst.Peak.Firing.Rate) was 9.74 µM and the AC50 (concentration at 50% maximal activity, Supplement 3 prints it also for curves with hit call 0, listed as BDE-47, read-out: ac50 Mean.Spheroid.Firing.Rate) was 7.84 µM. For the same molecule, the AC50 (concentration at 50% maximal activity, Supplement 3 prints it also for curves with hit call 0, listed as BDE-47, read-out: ac50 Spheroid.Burst.Frequency) was 8.92 µM, the AC50 (concentration at 50% maximal activity, Supplement 3 prints it also for curves with hit call 0, listed as BDE-47, read-out: ac50 Spheroid.Spike.Amplitude.90th.Percentile) was 13.4 µM and the AC50 (concentration at 50% maximal activity, Supplement 3 prints it also for curves with hit call 0, listed as BDE−47, read-out: ac50 Mean.Spheroid.Burst.Duration) was 14 µM. The AC50 (concentration at 50% maximal activity, Supplement 3 prints it also for curves with hit call 0, listed as BDE−47, read-out: ac50 Mean.Spheroid.Burst.Peak.Firing.Rate) was 9.7 µM, the AC50 (concentration at 50% maximal activity, Supplement 3 prints it also for curves with hit call 0, listed as BDE−47, read-out: ac50 Mean.Spheroid.Firing.Rate) was 7.8 µM and the AC50 (concentration at 50% maximal activity, Supplement 3 prints it also for curves with hit call 0, listed as BDE−47, read-out: ac50 Spheroid.Burst.Frequency) was 8.9 µM. It also gave an AC50 (concentration at 50% maximal activity, Supplement 3 prints it also for curves with hit call 0, listed as BDE−47, read-out: ac50 Spheroid.Spike.Amplitude.90th.Percentile) of 13 µM, an AC50 (concentration at 50% maximal activity, Supplement 3 prints it also for curves with hit call 0, read-out: ac50 Mean.Spheroid.Burst.ISI) of 13.4 µM and an AC50 (concentration at 50% maximal activity, Supplement 3 prints it also for curves with hit call 0, read-out: ac50 Mean.Spheroid.IBI) of 45 µM. It also gave an AC50 (concentration at 50% maximal activity, Supplement 3 prints it also for curves with hit call 0, read-out: ac50 Mean.Spheroid.Spikes.per.Burst) of 14.3 µM, an AC50 (concentration at 50% maximal activity, Supplement 3 prints it also for curves with hit call 0, read-out: ac50 Mean.Spheroid.Spikes.per.Burst.per.Electrode) of 8.93 µM and an EC50 (mean across active AC50 values per chemical, read-out: Mean potency) of 11.4 µM. The Percent active (metrics active out of the total number of metrics screened) was 80%, the “BMD Mean.Spheroid.Burst.Duration” value [11] was 8.9 µM and the “BMD Mean.Spheroid.Burst.ISI” value [11] was 7.8 µM. The “BMD Mean.Spheroid.Burst.Peak.Firing.Rate” value [11] was 7.1 µM, the “BMD Mean.Spheroid.Firing.Rate” value [11] was 7.9 µM and the “BMD Mean.Spheroid.IBI” value [11] was 34 µM. For the same molecule, the “BMD Mean.Spheroid.Nonburst.ISI” value [11] was 48 µM, the “BMD Mean.Spheroid.Spikes.per.Burst” value [11] was 12 µM and the “BMD Mean.Spheroid.Spikes.per.Burst.per.Electrode” value [11] was 7 µM. The “BMD Spheroid.Burst.Frequency” value [11] was 10 µM, the “BMD Spheroid.Spike.Amplitude.90th.Percentile” value [11] was 6.7 µM and the “ACC Mean.Spheroid.Burst.Duration” value [12] was 7.9 µM. For the same molecule, the “ACC Mean.Spheroid.Burst.ISI” value [12] was 4.8 µM, the “ACC Mean.Spheroid.Burst.Peak.Firing.Rate” value [12] was 6.6 µM and the “ACC Mean.Spheroid.Firing.Rate” value [12] was 11 µM. For the same molecule, the “ACC Mean.Spheroid.IBI” value [12] was 50 µM, the “ACC Mean.Spheroid.Nonburst.ISI” value [12] was 55 µM and the “ACC Mean.Spheroid.Spikes.per.Burst” value [12] was 17 µM. The “ACC Mean.Spheroid.Spikes.per.Burst.per.Electrode” value [12] was 8.2 µM, the “ACC Spheroid.Burst.Frequency” value [12] was 8.5 µM and the “ACC Spheroid.Spike.Amplitude.90th.Percentile” value [12] was 9.5 µM. The “Top Mean.Spheroid.Burst.Duration” value [13] was −93, the “Top Mean.Spheroid.Burst.ISI” value [13] was −93 and the “Top Mean.Spheroid.Burst.Peak.Firing.Rate” value [13] was −93. For the same molecule, the “Top Mean.Spheroid.Firing.Rate” value [13] was −92, the “Top Mean.Spheroid.IBI” value [13] was −81 and the “Top Mean.Spheroid.Nonburst.ISI” value [13] was −74. The “Top Mean.Spheroid.Spikes.per.Burst” value [13] was −93, the “Top Mean.Spheroid.Spikes.per.Burst.per.Electrode” value [13] was −92 and the “Top Spheroid.Burst.Frequency” value [13] was −95. The “Top Spheroid.Spike.Amplitude.90th.Percentile” value [13] was −22 and the Hits (total number of active endpoints out of 10 MEA activity metrics, 13-day exposure) was 8.
